Experimental data taken from patent US20260207580A1, “NITROXOLINE FOR USE IN THE TREATMENT OR PREVENTION OF A MALIGNANT PERIPHERAL NERVE SHEATH TUMOUR” (HEALX LTD, priority 2022, published 2026).

Key:
Assay type in all cases: cell-based
Nf1^−/− DNSCs [1] = assay: DNSC proliferation and viability, CellTiter-Glo Assay; conditions: cells Nf1−/−; 48 hrs incubation; serially diluted from 105 μM
Description: (§1) Nf1-Ink4a/Arf mutant DNSCs have increased cell cycle activity and proliferation in vitro, consistent with the in vivo phenotypes. The present study utilizes Nf1^−/− and Nf1^−/−; Ink4a/Arf^+/− mutant DNSCs obtained by transient infection of Nf1^flox/flox and Nf1^flox/flox; Ink4a/Arf^flox/+ DNSCs with an adenovirus carrying Cre recombinase. Selectivity of nitroxilone was compared between Nf1^−/− and Nf1^−/−; Ink4a/Arf^+/− DNSCs.
(§2) Nf1^−/− and Nf1^−/−; Ink4a/Arf^+/− DNSCs described above were treated with serially diluted nitroxoline starting from 105 μM and incubated for 48 hrs. After the incubation period, proliferation, viability and apoptosis assays were performed as described below: • DNSC proliferation and viability was assessed using the CellTiter-Glo Assay (Promega) which measures […]. […] After 10 minutes, the plates were read using a 96-well microplate luminometer. • To assess cellular apoptosis, the Caspase-Glo 3/7 kit (Promega) was utilized according to the manufacturer's instructions. […] After 10 minutes, plates were read using a 96 well luminometer to measure caspase 3/7 activity.

[2] = system: Nf1^−/−; Ink4a/Arf^+/− DNSCs; assay: as above; conditions: cells Nf1−/−, 48 hrs incubation, serially diluted from 105 μM
Description: as §1, §2

Nf1^−/− DNSCs [3] = assay: Cellular apoptosis, Caspase-Glo 3/7 kit (caspase 3/7 activity); conditions: nf1−/− cells; 48 hrs incubation; serially diluted from 105 μM
Description: as §1, §2

[4] = system: Nf1^−/−; Ink4a/Arf^+/− DNSCs; assay: as above; conditions: cells Nf1−/−, 48 hrs incubation, serially diluted from 105 μM
Description: as §1, §2

## O=[N+]([O-])c1ccc(O)c2ncccc12 [Nitroxoline, 5-nitroquinolin-8-ol]
Nf1^−/− DNSCs [1]
  concentrations at which the antiproliferative effect was observed: greater than 10 μM
[2]
  concentrations at which the antiproliferative effect was observed: greater than 3 μM
Nf1^−/− DNSCs [3]
  concentrations at which the induction of apoptosis was evident: 30 to 100 µM
[4]
  concentrations at which the induction of apoptosis was evident: greater than 10 μM
